Measured values taken from paper PMC8765320, “Identification of a Proteasome-Targeting Arylsulfonamide with Potential for the Treatment of Chagas’ Disease” (Antimicrobial Agents and Chemotherapy, 2022).
Like-named read-outs stand apart in the source and are kept apart here.

Assays:
[1] = system: chymotrypsin-like activity of the T. cruzi proteasome; experiment: Proteasome chymotrypsin-like activity luminescence assay; assay type: biochemical, Trypanosoma cruzi; settings: at concentrations up to and including 3.3 μM
Procedure: Initially, the impact of compound 1 on the chymotrypsin-like proteolytic activity of the proteasome was assessed using a commercially available indirect enzyme-based luminescent assay. In this assay, activity is monitored in proteasome-enriched T. cruzi epimastigote lysates using Suc-LLVY-aminoluciferin as a substrate ([16]). […] Thus, an alternative route to determine the impact of this arylsulfonamide compound on T. cruzi proteasome function was required.
The effect of inhibitors on the chymotrypsin-like activity of the T. cruzi proteasome was assessed by using a luminescence-based assay, as previously described ([21]).

[2] = system: T. cruzi epimastigotes; experiment: T. cruzi epimastigote drug sensitivity assay (resazurin); assay type: cell-based, Trypanosoma cruzi; settings: Trypanosoma cruzi
Procedure: To examine the effects of test compounds on the growth of T. cruzi epimastigotes, mid-log-phase parasites were seeded into 96-well plates at a cell density of 5 × 10^5 cells ml^−1. Cells were exposed to test compounds over a range of concentrations (2-fold serial dilutions). Cells were incubated for 4 days, and then 20 μl of 2.5 mM resazurin was added to each well, before measuring the fluorescence (excitation, 528 nm; emission, 590 nm), following a further 24 h of incubation. […] In this equation, [I] represents the inhibitor concentration, and m is the slope factor. Experiments were repeated at least two times, and the data are presented as means plus the standard deviations.

[3] = system: T. cruzi malic enzyme (cTcME); experiment: Malic enzyme assay in clarified epimastigote lysates (NADPH production, 340 nm); assay type: biochemical, Trypanosoma cruzi
Description: Malic enzyme (ME) catalyzes the oxidative decarboxylation of malate to pyruvate with the concomitant reduction of NAD(P)^+ to NAD(P)H. In light of our TPP studies, we next sought to determine whether the binding of compound 1 to cTcME inhibits enzymatic activity. The ME-dependent production of NADPH was monitored in clarified lysates of T. cruzi epimastigotes at 340 nm after the addition of malate. In the first instance, this assay was validated using ATR-073, an established inhibitor of cTcME ([27]). […] Similarly, preincubation of lysates with 20 μM and 1 μM concentrations of compound 1 inhibited ME activity by 96 and 68%, respectively (Fig. 4C). […] It should be noted that ATR-073 and compound 1 are structurally similar, both being substituted N-phenyl aryl sulfonamides, this common moiety constituting the pharmacophore of this chemical series.
Logarithmic T. cruzi epimastigotes were harvested (1,690 × g, 10 min, 4°C), washed once in ice-cold phosphate-buffered saline, and resuspended at 2 × 10^9 cells ml^−1 in lysis buffer (10 mM phosphate buffer [pH 7.2], 10 mM EDTA, 5 mM benzamidine, 5 mM phenanthroline, 0.1 mM phenylmethylsulfonyl fluoride) containing 1 mg ml^−1 digitonin, followed by incubation at 28°C for 10 min. The resulting lysate was then centrifuged (13,000 × g, 10 min, 4°C), and the supernatant was harvested and stored on ice. The protein concentration of this clarified lysate was determined by using a standard Bio-Rad protein assay.
The activity of malic enzyme was assayed as previously described ([42]), with minor modifications. T. cruzi clarified lysate (30 μl) was added to a reaction mixture (500 μl final volume) containing 50 mM Tris-HCl buffer (pH 7.6), 1 mM MnCl2, and 0.12 mM NADP^+. Reactions were initiated by the addition of 5 mM L-malate. The reduction of NADP^+ was monitored at 340 nm using a UV-2401 spectrophotometer (Shimadzu). To monitor the effect of test compounds on the activity of malic enzyme, compounds (1 and 20 μM) were preincubated for 10 min with the lysate in the reaction mixture. DMSO (0.2%) was used as control. All enzymatic activities were calculated as Δabs min^−1 mg^−1 of protein.

## CCC(C)NC(=O)c1ccccc1NS(=O)(=O)c1ccc2ccccc2c1 (stereo not shown) [ATR-073]
[1]
  effect on the chymotrypsin-like activity of the proteasome: no effect
[2]; WT, Fig. S3B, one biological replicate
  EC50: 49 ± 29 µM
[2]; compound 2-Res V cells (so in the source), Fig. S3B, one biological replicate, read-out: EC50
  EC50: 51 ± 18 µM
[2]; epimastigotes, cell line Wild-type, weighted mean, n ≥ 3, read-out: ATR-073 EC50 values
  EC50: 34 ± 1 µM
[2]; epimastigotes, cell line cTcME OE, weighted mean, n ≥ 3, read-out: ATR-073 EC50 values
  EC50: 32 ± 2 µM
[3]; preincubation of lysates with 1 μM
  reduction in ME activity: 63%
[3]; preincubation of lysates with 20 μM
  reduction in ME activity: 96%
